Assay results from patent US20240269139A1, “COMPOUNDS FOR TARGETED PROTEIN DEGRADATION OF KINASES” (DANA-FARBER CANCER INSTITUTE, INC., priority 2020, published 2024).
Like-named read-outs stand apart in the source and are kept apart here.

Key:
Type in all cases: cell-based
[1] = target: T1, protein kinases (human kinome) (Homo sapiens, UniProt Q53H12); conditions: direction down
T1 sequence (Q53H12 1-422): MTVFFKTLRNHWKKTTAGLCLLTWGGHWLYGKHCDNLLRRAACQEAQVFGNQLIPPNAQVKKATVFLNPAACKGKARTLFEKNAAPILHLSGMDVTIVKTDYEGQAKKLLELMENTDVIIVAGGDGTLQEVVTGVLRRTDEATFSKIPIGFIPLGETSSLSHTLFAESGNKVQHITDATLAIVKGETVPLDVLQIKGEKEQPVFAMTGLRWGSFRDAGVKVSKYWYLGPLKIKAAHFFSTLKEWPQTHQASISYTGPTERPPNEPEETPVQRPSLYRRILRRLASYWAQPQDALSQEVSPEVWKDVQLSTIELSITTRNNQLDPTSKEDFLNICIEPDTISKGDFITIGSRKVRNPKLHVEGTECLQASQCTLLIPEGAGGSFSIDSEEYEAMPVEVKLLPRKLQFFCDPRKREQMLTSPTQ

[2] = target: protein kinases (human kinome) (Homo sapiens, UniProt Q8NI60)
Sequence of protein kinases (human kinome) (Homo sapiens, UniProt Q8NI60) (Q8NI60 163-647): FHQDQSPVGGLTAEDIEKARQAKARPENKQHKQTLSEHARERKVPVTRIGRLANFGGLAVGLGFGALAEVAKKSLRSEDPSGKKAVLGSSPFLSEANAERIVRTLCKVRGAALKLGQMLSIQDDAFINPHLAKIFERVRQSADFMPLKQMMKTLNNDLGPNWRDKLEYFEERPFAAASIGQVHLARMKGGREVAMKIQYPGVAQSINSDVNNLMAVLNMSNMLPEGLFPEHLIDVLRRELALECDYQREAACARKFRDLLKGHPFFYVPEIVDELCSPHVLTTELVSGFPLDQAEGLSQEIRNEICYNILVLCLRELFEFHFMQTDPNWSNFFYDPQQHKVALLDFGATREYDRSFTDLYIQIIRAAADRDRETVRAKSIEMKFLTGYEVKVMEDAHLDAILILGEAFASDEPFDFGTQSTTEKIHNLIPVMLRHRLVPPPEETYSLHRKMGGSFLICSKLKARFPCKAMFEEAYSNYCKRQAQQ

[3] = target: protein kinases (human kinome) (Homo sapiens, UniProt P53667); conditions: LIMK1 (P53667-1)
Sequence of protein kinases (human kinome) (Homo sapiens, UniProt P53667) (P53667 whole entry): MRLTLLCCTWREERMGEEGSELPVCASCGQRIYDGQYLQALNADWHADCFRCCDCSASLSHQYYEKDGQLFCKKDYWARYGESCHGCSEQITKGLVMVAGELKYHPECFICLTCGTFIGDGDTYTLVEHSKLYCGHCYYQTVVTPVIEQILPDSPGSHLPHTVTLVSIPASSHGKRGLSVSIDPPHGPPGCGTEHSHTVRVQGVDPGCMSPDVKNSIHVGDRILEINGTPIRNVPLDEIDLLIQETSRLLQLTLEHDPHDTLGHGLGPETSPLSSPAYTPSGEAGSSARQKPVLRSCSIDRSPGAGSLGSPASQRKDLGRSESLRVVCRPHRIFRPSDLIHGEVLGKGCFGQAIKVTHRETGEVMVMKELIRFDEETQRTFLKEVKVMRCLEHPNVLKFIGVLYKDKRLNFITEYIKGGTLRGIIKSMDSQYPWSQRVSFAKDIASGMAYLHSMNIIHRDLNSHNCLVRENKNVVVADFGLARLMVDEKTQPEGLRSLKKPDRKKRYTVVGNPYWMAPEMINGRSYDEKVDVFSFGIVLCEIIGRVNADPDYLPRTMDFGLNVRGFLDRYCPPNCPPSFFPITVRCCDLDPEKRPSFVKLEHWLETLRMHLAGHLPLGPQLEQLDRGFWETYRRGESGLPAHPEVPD

[4] = target: protein kinases (human kinome) (Homo sapiens, UniProt Q00535)
Sequence of protein kinases (human kinome) (Homo sapiens, UniProt Q00535) (Q00535 whole entry): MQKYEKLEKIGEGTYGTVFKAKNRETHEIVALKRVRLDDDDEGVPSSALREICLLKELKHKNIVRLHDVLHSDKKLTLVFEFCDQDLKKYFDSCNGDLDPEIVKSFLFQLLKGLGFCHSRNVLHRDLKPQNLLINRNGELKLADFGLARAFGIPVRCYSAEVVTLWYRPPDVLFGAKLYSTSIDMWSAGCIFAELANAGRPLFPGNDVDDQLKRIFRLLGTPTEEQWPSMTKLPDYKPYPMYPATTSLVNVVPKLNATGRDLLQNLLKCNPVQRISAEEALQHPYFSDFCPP

[5] = target: protein kinases (human kinome) (Homo sapiens, UniProt P42684)
Sequence of protein kinases (human kinome) (Homo sapiens, UniProt P42684) (P42684 whole entry): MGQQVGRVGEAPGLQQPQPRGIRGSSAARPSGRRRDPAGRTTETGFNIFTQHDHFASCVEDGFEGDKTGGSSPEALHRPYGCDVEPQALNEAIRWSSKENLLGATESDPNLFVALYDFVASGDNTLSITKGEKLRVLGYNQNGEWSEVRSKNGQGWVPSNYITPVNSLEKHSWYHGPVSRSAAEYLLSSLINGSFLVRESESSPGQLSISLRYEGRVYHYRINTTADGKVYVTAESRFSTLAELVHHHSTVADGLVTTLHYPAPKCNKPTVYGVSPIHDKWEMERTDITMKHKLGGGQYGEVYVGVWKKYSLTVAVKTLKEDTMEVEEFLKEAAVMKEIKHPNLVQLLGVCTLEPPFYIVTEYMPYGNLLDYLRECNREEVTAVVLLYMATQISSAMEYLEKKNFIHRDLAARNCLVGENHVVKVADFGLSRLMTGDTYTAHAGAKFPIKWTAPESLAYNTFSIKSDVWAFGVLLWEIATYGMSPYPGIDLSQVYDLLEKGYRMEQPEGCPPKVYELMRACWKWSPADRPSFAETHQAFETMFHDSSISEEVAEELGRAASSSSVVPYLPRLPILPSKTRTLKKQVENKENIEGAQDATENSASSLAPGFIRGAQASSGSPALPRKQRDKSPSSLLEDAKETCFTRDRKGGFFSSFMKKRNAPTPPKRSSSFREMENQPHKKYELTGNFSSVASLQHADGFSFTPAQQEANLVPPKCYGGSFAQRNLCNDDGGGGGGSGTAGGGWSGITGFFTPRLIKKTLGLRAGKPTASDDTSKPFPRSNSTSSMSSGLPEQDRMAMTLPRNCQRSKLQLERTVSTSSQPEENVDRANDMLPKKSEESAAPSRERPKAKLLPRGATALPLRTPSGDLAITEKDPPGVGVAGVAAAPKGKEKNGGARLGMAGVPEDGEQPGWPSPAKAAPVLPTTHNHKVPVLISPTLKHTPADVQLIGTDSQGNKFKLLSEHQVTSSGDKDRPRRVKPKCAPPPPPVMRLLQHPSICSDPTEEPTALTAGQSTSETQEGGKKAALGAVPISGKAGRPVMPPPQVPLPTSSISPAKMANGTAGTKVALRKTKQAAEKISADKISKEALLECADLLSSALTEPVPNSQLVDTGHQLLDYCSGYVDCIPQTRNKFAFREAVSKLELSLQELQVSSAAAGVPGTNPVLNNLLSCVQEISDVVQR

[6] = target: T2, protein kinases (human kinome) (Homo sapiens, UniProt Q96L34)
T2 sequence (Q96L34 1-752): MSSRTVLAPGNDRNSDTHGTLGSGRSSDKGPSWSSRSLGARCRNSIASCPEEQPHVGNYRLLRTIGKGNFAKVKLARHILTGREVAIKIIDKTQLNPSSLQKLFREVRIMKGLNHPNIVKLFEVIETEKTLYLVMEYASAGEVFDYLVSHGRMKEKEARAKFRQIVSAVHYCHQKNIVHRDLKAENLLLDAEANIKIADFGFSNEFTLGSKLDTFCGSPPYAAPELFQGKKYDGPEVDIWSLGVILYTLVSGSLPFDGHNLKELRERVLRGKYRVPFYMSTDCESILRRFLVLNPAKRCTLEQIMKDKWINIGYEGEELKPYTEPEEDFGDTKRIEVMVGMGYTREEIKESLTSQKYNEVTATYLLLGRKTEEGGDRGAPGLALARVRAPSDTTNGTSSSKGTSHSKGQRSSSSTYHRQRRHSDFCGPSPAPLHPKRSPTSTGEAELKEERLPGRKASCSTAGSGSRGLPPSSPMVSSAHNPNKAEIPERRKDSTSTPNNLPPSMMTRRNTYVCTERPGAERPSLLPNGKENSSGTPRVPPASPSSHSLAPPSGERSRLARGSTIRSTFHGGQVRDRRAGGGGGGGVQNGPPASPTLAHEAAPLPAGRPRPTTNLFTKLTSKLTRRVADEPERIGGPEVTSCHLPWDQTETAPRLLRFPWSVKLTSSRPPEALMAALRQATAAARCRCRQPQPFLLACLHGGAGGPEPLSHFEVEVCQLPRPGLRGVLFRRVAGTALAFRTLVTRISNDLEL

[7] = target: protein kinases (human kinome) (Homo sapiens, UniProt O43683); conditions: for logFC: BUB1 (O43683); for logFC BUB1 (O43683): direction down
Sequence of protein kinases (human kinome) (Homo sapiens, UniProt O43683) (O43683 whole entry): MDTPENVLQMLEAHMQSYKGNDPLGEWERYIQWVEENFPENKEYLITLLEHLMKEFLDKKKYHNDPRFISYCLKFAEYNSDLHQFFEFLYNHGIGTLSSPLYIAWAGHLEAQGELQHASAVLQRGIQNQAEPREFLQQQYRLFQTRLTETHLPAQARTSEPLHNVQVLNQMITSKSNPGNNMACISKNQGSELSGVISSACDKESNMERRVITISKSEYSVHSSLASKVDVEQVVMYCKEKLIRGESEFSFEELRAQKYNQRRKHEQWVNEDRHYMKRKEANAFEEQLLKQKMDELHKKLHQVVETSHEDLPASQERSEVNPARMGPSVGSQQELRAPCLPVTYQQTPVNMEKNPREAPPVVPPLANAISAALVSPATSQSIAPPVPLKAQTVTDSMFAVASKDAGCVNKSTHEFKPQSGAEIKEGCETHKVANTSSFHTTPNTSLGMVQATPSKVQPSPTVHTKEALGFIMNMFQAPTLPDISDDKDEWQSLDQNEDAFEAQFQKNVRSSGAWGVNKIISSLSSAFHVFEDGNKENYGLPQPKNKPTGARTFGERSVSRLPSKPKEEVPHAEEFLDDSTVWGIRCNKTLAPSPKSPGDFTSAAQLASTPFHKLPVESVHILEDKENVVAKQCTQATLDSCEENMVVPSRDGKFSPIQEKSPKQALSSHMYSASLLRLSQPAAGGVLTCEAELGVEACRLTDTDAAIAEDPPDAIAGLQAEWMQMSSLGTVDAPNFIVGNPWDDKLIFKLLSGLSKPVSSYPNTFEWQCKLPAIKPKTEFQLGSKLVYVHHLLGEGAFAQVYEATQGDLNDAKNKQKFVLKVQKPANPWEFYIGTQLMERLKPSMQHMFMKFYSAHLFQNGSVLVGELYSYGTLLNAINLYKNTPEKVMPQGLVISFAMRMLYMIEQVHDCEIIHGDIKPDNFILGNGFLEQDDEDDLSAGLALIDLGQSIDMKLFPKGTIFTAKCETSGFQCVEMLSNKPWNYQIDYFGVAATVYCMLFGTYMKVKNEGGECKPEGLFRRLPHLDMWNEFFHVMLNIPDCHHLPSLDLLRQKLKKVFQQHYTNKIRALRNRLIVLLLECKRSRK

[8] = target: protein kinases (human kinome) (Homo sapiens, UniProt Q00537); conditions: for logFC of CDK17: Accession Q00537; for logFC CDK17 (Q00537): direction of change down
Sequence of protein kinases (human kinome) (Homo sapiens, UniProt Q00537) (Q00537 whole entry): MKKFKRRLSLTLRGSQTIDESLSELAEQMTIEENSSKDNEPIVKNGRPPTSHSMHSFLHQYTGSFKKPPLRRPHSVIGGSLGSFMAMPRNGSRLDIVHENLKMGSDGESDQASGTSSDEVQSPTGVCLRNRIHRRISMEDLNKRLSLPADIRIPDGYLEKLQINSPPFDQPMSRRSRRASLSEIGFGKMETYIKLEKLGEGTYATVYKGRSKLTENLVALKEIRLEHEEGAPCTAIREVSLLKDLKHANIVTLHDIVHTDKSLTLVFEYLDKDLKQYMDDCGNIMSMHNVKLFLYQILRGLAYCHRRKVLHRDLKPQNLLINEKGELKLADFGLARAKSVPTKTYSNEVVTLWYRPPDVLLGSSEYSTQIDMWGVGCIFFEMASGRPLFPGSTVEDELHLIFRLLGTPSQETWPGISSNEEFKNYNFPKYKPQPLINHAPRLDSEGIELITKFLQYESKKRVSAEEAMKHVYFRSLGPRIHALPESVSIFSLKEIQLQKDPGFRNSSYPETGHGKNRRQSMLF

[9] = direction down, experiment wp137

SMILES: CC(=O)c1c(C)c2cnc(Nc3ccc(N4CCN(CCOCCOCCOCCNC(=O)COc5cccc6c5C(=O)N(C5CCC(=O)NC5=O)C6=O)CC4)cn3)nc2n(C2CCCC2)c1=O (stereo not drawn) [BSJ.03.123]
- logFC AGK (Q53H12) ([1]; Experiment wp084): −0.6506
- logFC COQ8A (Q8N160-1) ([2]; experiment wp084): −0.4611
- logFC COQ8A (Q8NI60-1) ([2]; experiment wp084): −0.4611

SMILES: C=CCn1c(=O)c2cnc(Nc3ccc(N4CCN(CCCNc5cccc6c5C(=O)N(C5CCC(=O)NC5=O)C6=O)CC4)cc3)nc2n1-c1cccc(C(C)(C)O)n1 (stereo not drawn) [ZNL.02.096]
- logFC AGK (Q53H12) ([1]; Experiment wp056): −0.5514
- logFC COQ8A (Q8N160-1) ([2]; experiment wp056): −0.4317
- logFC COQ8A (Q8NI60-1) ([2]; experiment wp056): −0.4317
- logFC COQ8A (Q8N160-1) ([2]; experiment wp118): −0.423
- logFC COQ8A (Q8NI60-1) ([2]; experiment wp118): −0.423

SMILES: CC(C)(C)c1nc(-c2cccc(NS(=O)(=O)c3c(F)cccc3F)c2F)c(-c2ccnc(NCCOCCNC(=O)CCOCCOCCNc3cccc4c3CN(C3CCC(=O)NC3=O)C4=O)n2)s1 (stereo not drawn) [DD.03.107]
- logFC AGK (Q53H12) ([1]; Experiment wp147, 1 uM): −0.7983
- logFC AGK (Q53H12) ([1]; Experiment wp147, 2 uM): −0.8655
- logFC AGK (Q53H12) ([1]; Experiment wp147, 4 uM): −1.343
- logFC LIMK1 ([3]; direction down, experiment wp056): −0.9594
- logFC LIMK1 [3, 9]: −1.222
- logFC LIMK1 ([3]; direction down, experiment wp147, 1 uM): −0.9691
- logFC LIMK1 ([3]; direction down, experiment wp147, 2 uM): −1.375
- logFC LIMK1 ([3]; direction down, experiment wp147, 4 uM): −1.536
- logFC LIMK1 ([3]; experiment wp056, down): −0.9594
- logFC LIMK1 ([3]; experiment wp137, down): −1.222
- logFC LIMK1 ([3]; experiment wp147, 1 uM, down): −0.9691
- logFC LIMK1 ([3]; experiment wp147, 2 uM, down): −1.375
- logFC LIMK1 ([3]; experiment wp147, 4 uM, down): −1.536
- logFC COQ8A (Q8N160-1) ([2]; experiment wp147, 1 uM): −0.6678
- logFC COQ8A (Q8NI60-1) ([2]; experiment wp147, 1 uM): −0.6678
- logFC COQ8A (Q8N160-1) ([2]; experiment wp147, 2 uM): −0.6288
- logFC COQ8A (Q8NI60-1) ([2]; experiment wp147, 2 uM): −0.6288
- logFC COQ8A (Q8N160-1) ([2]; experiment wp147, 4 uM): −1.121
- logFC COQ8A (Q8NI60-1) ([2]; experiment wp147, 4 uM): −1.121

SMILES: O=C(COc1cccc2c1C(=O)N(C1CCC(=O)NC1=O)C2=O)NCCCCCCCC(=O)NC1(c2ccc(-c3nc4ccn5c(=O)[nH]nc5c4cc3-c3ccccc3)cc2)CCC1 (stereo not drawn) [INY.01.140.1]
- logFC AGK (Q53H12) ([1]; Experiment wp081): −0.4936

SMILES: Cc1cnc(Nc2ccc(N3CCN(CCOCCOCCNC(=O)COc4cccc5c4C(=O)N(C4CCC(=O)NC4=O)C5=O)CC3)cc2)nc1Nc1cccc(S(=O)(=O)NC(C)(C)C)c1 (stereo not drawn) [JWG.118]
- logFC AGK (Q53H12) ([1]; Experiment wp071): −0.5599

SMILES: CC(C)S(=O)(=O)c1ccccc1Nc1nc(Nc2ccc(N3CCN(CCOCCOCCNC(=O)CNc4cccc5c4C(=O)N(C4CCC(=O)NC4=O)C5=O)CC3)cc2)ncc1Cl (stereo not drawn) [TL12.186]
- logFC of CDK5 ([4]; Accession Q00535, experiment wp016): −0.9261
- logFC CDK5 (Q00535) ([4]; experiment wp016, direction of change down): −0.9261
- logFC CDK5 (Q00535) ([4]; experiment wp131): −1.3
- logFC CDK5 (Q00535) ([4]; experiment wp131, direction of change down): −1.3
- logFC CDK5 (Q00535) ([4]; experiment wp137): −1.234
- logFC CDK5 (Q00535) ([4]; experiment wp137, direction of change down): −1.234
- logFC ([5]; ABL2 (P42684) protein abundance, degrader vs DMSO, down): −0.803
- logFC ABL2 (P42684) ([5]; experiment wp137): −0.803
- logFC MARK4 ([6]; Accession Q96L34-1, experiment wp137): −1.298
- logFC MARK4 (Q96L34-1) ([6]; experiment wp131): −1.829
- logFC MARK4 (Q96L34-1) ([6]; experiment wp137): −1.298
- logFC ([7]; experiment wp131): −0.4983
- logFC ([7]; experiment wp137): −0.4422
- logFC BUB1 (O43683) ([7]; Experiment wp131): −0.4983
- logFC BUB1 (O43683) ([7]; Experiment wp137): −0.4422
- logFC of CDK17 ([8]; experiment wp016): −0.84
- logFC of CDK17 ([8]; experiment wp131): −0.6165
- logFC CDK17 (Q00537) ([8]; experiment wp016): −0.84
- logFC CDK17 (Q00537) ([8]; experiment wp131): −0.6165
- logFC LIMK1 ([3]; direction down, experiment wp131): −1.055
- logFC LIMK1 [3, 9]: −0.8734
- logFC LIMK1 ([3]; experiment wp131, down): −1.055
- logFC LIMK1 ([3]; experiment wp137, down): −0.8734
- logFC COQ8A (Q8N160-1) ([2]; experiment wp137): −0.4564
- logFC COQ8A (Q8NI60-1) ([2]; experiment wp137): −0.4564
